Reference: the supplement of paper PMC10307832

Columns and labels:
Test in all cases: relative viability (nuclei count vs DMSO), 5 days (fraction); higher = more cells survive
XMD14-99 + Linsitinib = compound: CN1CCN(CC1)C2=CC(=C(C=C2)NC3=NC(=C(S3)C(=O)C4=C(C=CC=C4Cl)Cl)N)OC [XMD14-99] + C[C@]1(O)C[C@@H](c2nc(-c3ccc4ccc(-c5ccccc5)nc4c3)c3c(N)nccn32)C1 [Linsitinib] (partner 1 µM)
Summary of the method: (§1)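 For relative viability, nuclei counts in treated wells were divided by those in vehicle wells. Lung cancer cell lines had been pin-tool dosed in 1536-well plates the day after seeding and cultured for 5 days, then fixed and stained in one step (final 0.05% Triton X-100, 1% formaldehyde, 1 ug/ml Hoechst) and imaged at 4×. Doses were one drug alone or a fixed anchor-drug dose plus five library-drug doses (not always all listed) in √10 steps, and values are duplicate-plate medians.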

AZD1208 + Dasatinib = compound: N[C@@H]1CCCN(c2c(/C=C3\SC(=O)NC3=O)cccc2-c2ccccc2)C1 [AZD1208] + Cc1nc(Nc2ncc(C(=O)Nc3c(C)cccc3Cl)s2)cc(N2CCN(CCO)CC2)n1 [Dasatinib] (partner 0.075 µM)
Summary of the method: as §1

XMD14-99 + Bortezomib = compound: CN1CCN(CC1)C2=CC(=C(C=C2)NC3=NC(=C(S3)C(=O)C4=C(C=CC=C4Cl)Cl)N)OC [XMD14-99] + CC(C)C[C@H](NC(=O)[C@H](Cc1ccccc1)NC(=O)c1cnccn1)B(O)O [Bortezomib] (partner 0.002 µM)
Summary of the method: as §1

AZD1208 + Palbociclib = compound: N[C@@H]1CCCN(c2c(/C=C3\SC(=O)NC3=O)cccc2-c2ccccc2)C1 [AZD1208] + CC(=O)c1c(C)c2cnc(Nc3ccc(N4CCNCC4)cn3)nc2n(C2CCCC2)c1=O [Palbociclib] (partner 0.5 µM)
Summary of the method: as §1

Cell Line | relative viability (XMD14-99 + Linsitinib; first compound 0.08 µM) | relative viability (XMD14-99 + Linsitinib; first compound 0.8 µM) | relative viability (XMD14-99 + Linsitinib; first compound 2.53 µM) | relative viability (XMD14-99 + Linsitinib; first compound 8 µM) | relative viability (AZD1208 + Dasatinib; first compound 0.08 µM) | relative viability (AZD1208 + Dasatinib; first compound 0.253 µM) | relative viability (AZD1208 + Dasatinib; first compound 0.8 µM) | relative viability (AZD1208 + Dasatinib; first compound 2.53 µM) | relative viability (AZD1208 + Dasatinib; first compound 8 µM) | relative viability (XMD14-99 + Bortezomib; first compound 0.08 µM) | relative viability (XMD14-99 + Bortezomib; first compound 0.8 µM) | relative viability (XMD14-99 + Bortezomib; first compound 2.53 µM) | relative viability (XMD14-99 + Bortezomib; first compound 8 µM) | relative viability (AZD1208 + Palbociclib; first compound 0.08 µM) | relative viability (AZD1208 + Palbociclib; first compound 0.253 µM) | relative viability (AZD1208 + Palbociclib; first compound 0.8 µM) | relative viability (AZD1208 + Palbociclib; first compound 2.53 µM) | relative viability (AZD1208 + Palbociclib; first compound 8 µM)
NCI-H1915 | 1.14 | 1.04 | 0.951 | 0.965 | 0.305 | 0.298 | 0.296 | 0.294 | 0.239 | 1.03 | 0.97 | 0.872 | 0.904 | 0.504 | 0.435 | 0.486 | 0.474 | 0.455
NCI-H1975 | 0.872 | 0.97 | 0.81 | 0.663 | 0.388 | 0.363 | 0.36 | 0.361 | 0.381 | 0.388 | 0.359 | 0.347 | 0.272 | 0.56 | 0.686 | 0.535 | 0.591 | 0.403
NCI-H1993 | 0.684 | 0.66 | 0.659 | 0.749 | 0.507 | 0.519 | 0.54 | 0.536 | 0.459 | 1.14 | 0.956 | 0.92 | 0.864 | 0.595 | 0.578 | 0.439 | 0.544 | 0.432
NCI-H2009 | 1.2 | 1.15 | 1.19 | 0.91 | 0.257 | 0.267 | 0.279 | 0.249 | 0.304 | 1.05 | 0.968 | 0.919 | 0.682 | 0.196 | 0.202 | 0.221 | 0.208 | 0.181
NCI-H2023 | 0.662 | 0.551 | 0.63 | 0.514 | 0.506 | 0.614 | 0.457 | 0.472 | 0.493 | 0.931 | 0.945 | 0.83 | 0.645 | 0.34 | 0.39 | 0.333 | 0.373 | 0.332
NCI-H2085 | 0.872 | 0.86 | 0.784 | 0.667 | 0.27 | 0.217 | 0.306 | 0.218 | 0.262 | 1.13 | 1.03 | 0.954 | 0.745 | 0.462 | 0.473 | 0.52 | 0.482 | 0.474
NCI-H2087 | 0.894 | 0.695 | 0.679 | 0.646 | 0.763 | 0.824 | 0.641 | 0.573 | 0.715 | 0.85 | 0.705 | 0.709 | 0.45 | 0.257 | 0.192 | 0.276 | 0.241 | 0.219
NCI-H2126 | 0.739 | 0.705 | 0.668 | 0.628 | 0.554 | 0.453 | 0.475 | 0.436 | 0.394 | 1.16 | 1.08 | 1.08 | 0.946 | 0.363 | 0.362 | 0.349 | 0.33 | 0.382
